Data from patent publication US9428501B2, “Bicyclic nitrogen-containing aromatic heterocyclic amide compound” (ASTELLAS PHARMA INC., priority 2013, dated 2016).
pEC50, pIC50: −log10 of the molar value. Like-named read-outs stand apart in the source and are kept apart here.

What was measured:
[1] = tested on: human PIK3CA mutation-positive breast cancer cell line MDA-MB-453 cells; assay: Scaffold independent cell proliferation inhibitory effect, MDA-MB-453 cells; format: cell-based; details: non-adhesive plate, 4 days, CellTiter-Glo, read-out: IC50 (cell proliferation inhibition)
Description: The effect on proliferation of cancer cells of the test compound was evaluated.
Measurement (colony method) of the scaffold independent cell proliferation is known as a system in which the anti-cancer effect of the test compound is examined. As a method for measuring cell-non-adhesive proliferation substituting the colony method, there is a method of using a non-adhesive plate as follows.
Thereafter, the cells were cultured for 4 days at 37° C. in the absence of CO2, and a cytometric reagent (CellTiter-Glo Luminescent Cell Viability assay manufactured by Promega Corporation) was added. The resultant product was stirred for 30 minutes, and then measurement was carried out using a luminescence measurement apparatus (ARVO manufactured by Perkin Elmer Inc.).

[2] = molecular target: human mitochondrial Complex I (Homo sapiens, UniProt O75251+O75306+P03886); format: biochemical
Description: Mitochondria was extracted from MDA-MB-453 tumor, and the Complex I inhibitory activity of the test compound was evaluated.
Human PIK3CA mutation-positive breast cancer cell line MDA-MB-453 cells were subcutaneously implanted into nude mice, MDA-MB-453 tumor was excised, a mitochondria extraction solution (0.25 M Sucrose, 2 mM EDTA, 10 mM Tris/HCl pH 7.5) of 9 times of tumor weight was added thereto, and crushing was carried out thereon. The reaction mixture was centrifuged at 600×g and 4° C. for 10 minutes to obtain a supernatant, and the supernatant was centrifuged at 14000×g and 4° C. for 10 minutes, thereby obtaining a pellet. The pellet was suspended in 10 mM Tris/HCl pH 7.5 of 5 times of the excised tumor weight, thereby obtaining a human mitochondrial suspension.
Next, 25 μl of the human mitochondrial suspension per 1 ml of Complex I activity measurement solution (200 mM potassium phosphate pH 7.6, 0.35% Bovine Serum Albumin (BSA), 60 μM 2,6-dichlorophenol-indophenol, 70 μM decylubiquinone, 1 μM antimycin) was added. After dispensed into a 96 or 384-well plate, a test compound (from 10000 nM to 0.3 nM) and DMSO which is a solvent for the test compound as a negative control were added such that a final concentration of Rotenone which is a Complex I inhibitor as a positive control becomes 1 μM. Further, NADH was added so as to have a final concentration of 0.2 mM, and a change in absorbance at a wavelength of 600 nm using SpectraMax (manufactured by Molecular Devices LLC) set to 37° C. in advance was measured. […] Moreover, in the Table, Ex indicates Example No. (the same shall apply hereinafter.).

AMPK = assay: Evaluation of AMPK activation effect (phosphorylation of ACC Ser79, Cell ELISA in MDA-MB-453 cells); format: cell-based, human; details: 2 hours
Description: By measuring phosphorylation of 79th serine (Ser79) of Acetyl-CoA Carboxylase (ACC) which is a substrate of AMPK with Cell ELISA, the AMPK activation effect by the test compound was evaluated.
In order to make MDA-MB-453 cell become 15000 cells per well, each 36 μl was seeded in Leibovitz's L-15 medium including 10% fetal bovine serum (manufactured by Life Technologies Corp.) in a 384 well plate, followed by culturing at 37° C. overnight in the absence of CO2. […] After the incubation, 20 μl of a 40% glyoxal solution (Nacalai Tesque) was added to each well, and then cells were fixed by leaving to stand at room temperature for 30 minutes. Thereafter, the supernatant was removed by centrifuging the plate, and then 0.1% Triton X-100-containing Phosphate-Buffered Saline (PBS) was added to each well by 20 followed by incubating at room temperature for 10 minutes. The 0.1% Triton X-100-containing PBS was removed by centrifuging for 8 seconds at 800 rpm (all solution removal operation by centrifuge described below were carried out under the same conditions), and then a blocking solution (ODYSSEY Blocking Buffer; manufactured by Li—COR Biosciences) was added to each well by 20 μl, followed by leaving to stand at room temperature for 1 hour. The blocking solution was removed by centrifuging, with the exception of the blocking solution by centrifugation, and then a blocking solution which was diluted such that the amount of phosphorylation antibody (manufactured by Cell Signaling Technology, Inc) of ACC Ser79 as a primary antibody is 1/500 was added to each well by 10 followed by leaving to stand at 4° C. overnight. The following day, the reaction liquid was removed by centrifuging the plate, and then 0.05% Tween-20-containing Tris-Buffered Saline (TBS) (manufacture by Thermo Scientific Inc.; used in 1× in which 20×TBS Tween-20 was diluted with ion-exchange water) was added to each well by 25 followed by washing each well by centrifugal removal. The washing of each well was repeated for a total of 3 times. After washing, a blocking solution which was diluted such that the amount of IRDye 800CW Goat anti-Rabbit IgG (manufactured by Li—CoR Biosciences) as a secondary antibody is 1/1000 was added to each well by 10 μl, followed by leaving to stand at room temperature for 1 hour. After the secondary antibody reaction, the reaction liquid was removed by centrifuging the plate, and then each well was washed three times with 0.05% Tween-20-containing TBS in the same manner as after the primary antibody reaction. After the washing solution was removed, without change, the plate was air-dried at room temperature for 3 hours or longer and signals were measured by Aerius (manufactured by Li—CoR Biosciences).

MDA-MB-453 cells = assay: Anti-tumor effect in MDA-MB-453 cell cancer-bearing mouse; format: in vivo; details: oral, once a day for 15 days, Balb/c nude mouse
Description: 3×10^6 cells of MDA-MB-453 cells which were suspended with PBS were subcutaneously injected to be planted in the back of a 5 to 6 weeks old male Balb/c nude mouse (provided by Charles River Laboratories, Japan). 10 days after planting, the test compound was administered. The test was carried out on respective five mice of the solvent group and the test compound administered group, and 6% aqueous cyclodextrin solution was administered to the solvent group, and a mixture of 6% aqueous cyclodextrin solution and the test compound (1 or 3 mg/kg) was orally administered to the test compound administered group. Administration was carried out once a day for 15 days, and body weight and tumor size were measured approximately every other day. The following equation was used to calculate the tumor volume.

[3] = mitochondria from MDA-MB-453 tumor, absorbance 600 nm, 37° C.; read-out: IC50 (Complex I inhibition)

Chain of human mitochondrial Complex I (O75251 39-213 limits assumed): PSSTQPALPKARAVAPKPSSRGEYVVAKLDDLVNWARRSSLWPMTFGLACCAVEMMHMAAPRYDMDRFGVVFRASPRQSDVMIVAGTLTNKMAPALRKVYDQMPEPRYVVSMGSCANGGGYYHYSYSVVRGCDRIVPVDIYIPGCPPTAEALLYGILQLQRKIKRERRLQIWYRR
Chain of human mitochondrial Complex I (O75306 34-463 limits assumed): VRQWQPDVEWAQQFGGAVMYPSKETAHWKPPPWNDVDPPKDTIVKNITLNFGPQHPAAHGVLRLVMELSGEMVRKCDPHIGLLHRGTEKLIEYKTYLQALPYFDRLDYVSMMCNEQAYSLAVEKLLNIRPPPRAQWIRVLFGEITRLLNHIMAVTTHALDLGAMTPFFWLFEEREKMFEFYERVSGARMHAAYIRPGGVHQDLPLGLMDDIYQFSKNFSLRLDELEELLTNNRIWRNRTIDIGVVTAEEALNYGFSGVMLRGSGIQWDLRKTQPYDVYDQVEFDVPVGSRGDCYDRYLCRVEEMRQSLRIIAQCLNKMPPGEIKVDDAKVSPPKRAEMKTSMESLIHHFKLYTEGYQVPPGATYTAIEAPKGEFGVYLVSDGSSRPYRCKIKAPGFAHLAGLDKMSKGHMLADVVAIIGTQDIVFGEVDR
Chain of human mitochondrial Complex I (P03886 whole entry): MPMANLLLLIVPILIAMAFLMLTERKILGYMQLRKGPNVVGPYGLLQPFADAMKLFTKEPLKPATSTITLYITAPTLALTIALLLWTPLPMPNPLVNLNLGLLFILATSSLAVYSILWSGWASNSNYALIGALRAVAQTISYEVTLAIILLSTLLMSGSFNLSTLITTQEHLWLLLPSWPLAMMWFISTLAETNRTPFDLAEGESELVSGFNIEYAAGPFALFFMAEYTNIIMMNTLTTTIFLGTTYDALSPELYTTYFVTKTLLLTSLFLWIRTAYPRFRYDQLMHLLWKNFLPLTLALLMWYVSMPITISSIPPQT

| SMILES | pIC50 ([1]; Homo sapiens, 96 h) | pEC50 (AMPK) | pIC50 [2, 3] | further results |
| --- | --- | --- | --- | --- |
| COc1ccc(CN2CCC(c3ccc4nc(C(=O)N5CCN(Cc6ccc(C#N)cc6)CC5)[nH]c4c3)CC2)cn1 [Example 23] | 7.40 | 7.72 | 6.80 | – |
| COc1ccc(CN2CCC(c3ccc4[nH]c(C(=O)N5CCN(Cc6ccc(C(F)(F)F)cc6)CC5)nc4c3)CC2)cn1 [Example 1, (5-{1-[(6-methoxypyridin-3-yl)methyl]piperidin-4-yl}-1H-benzimidazol-2-yl){4-[4-(trifluoromethyl)benzyl]piperazin-1-yl}methanone ditosylate] | – | – | – | Anti-tumor effect, regression rate (MDA-MB-453 cells; 3 mg/kg): 26% regression |
| COc1ccc(CN2CCC(c3ccn4cc(C(=O)N5CCN(Cc6ccc(C(F)(F)F)cc6)CC5)nc4c3)CC2)cn1 [Example 36, (7-{1-[(6-methoxypyridin-3-yl)methyl]piperidin-4-yl}imidazo[1,2-a]pyridin-2-yl){4-[4-(trifluoromethyl)benzyl]piperazin-1-yl}methanone ditosylate] | 7.96 | 8.29 | 7.26 | Anti-tumor effect, regression rate (MDA-MB-453 cells; 3 mg/kg): 10% regression |
| COc1ccc(CN2CCC(c3ccc4nc(C(=O)N5CCN(Cc6ccc(C(F)(F)F)cc6)CC5)[nH]c4c3)CC2)cc1 [Example 14] | 8.12 | 7.47 | – | – |
| COc1ccc(CN2CCC(c3ccc4c(c3)nc(C(=O)N3CCN(Cc5ccc(C(F)(F)F)cc5)CC3)n4C)CC2)cn1 [Example 19] | 8.07 | 8.00 | – | – |
| COc1ccc(CN2CCC(c3ccc4nc(C(=O)N5CCN(Cc6ccc(C(F)(F)F)cc6)CC5)n(C)c4c3)CC2)cn1 [Example 18] | – | 8.52 | – | – |
| Cc1cnc(CN2CCC(c3ccc4nc(C(=O)N5CCN(Cc6ccc(C(F)(F)F)cc6)CC5)[nH]c4c3)CC2)cn1.Cl.Cl.Cl [Example 8, (6-{1-[(5-methylpyrazin-2-yl)methyl]piperidin-4-yl}-1H-benzimidazol-2-yl){4-[4-(trifluoromethyl)benzyl]piperazin-1-yl}methanone trihydrochloride] | 7.59 | 7.89 | – | pIC50 ([2]; read-out: IC50 (Complex I inhibition); mitochondria from MDA-MB-453 tumor, absorbance 600 nm, 37° C.): 7.08; Anti-tumor effect, inhibition rate (MDA-MB-453 cells; 3 mg/kg): 88% inhibition |
| COc1ccc(CN2CCC(c3ccc4nc(C(=O)N5CCN(Cc6ccc(C(F)(F)F)cc6)CC5)cn4c3)CC2)cn1 [Example 35] | – | 8.44 | – | – |
| COc1cnc(CN2CCC(c3ccc4c(c3)cc(C(=O)N3CCN(Cc5ccc(C#N)cc5)CC3)n4C)CC2)cn1 [Ex 79] | – | 8.48 | 6.92 | pIC50 [1]: 8.11; Anti-tumor effect, regression rate (MDA-MB-453 cells; 1 mg/kg): 43% regression |
| COc1cnc(CN2CCC(c3ccc4[nH]c(C(=O)N5CCN(Cc6ccc(C(F)(F)F)cc6)CC5)nc4c3)CC2)cn1 [Example 7, (5-{1-[(5-methoxypyrazin-2-yl)methyl]piperidin-4-yl}-1H-benzimidazol-2-yl){4-[4-(trifluoromethyl)benzyl]piperazin-1-yl}methanone ditosylate] | 7.92 | – | 7.12 | Anti-tumor effect, regression rate (MDA-MB-453 cells; 3 mg/kg): 49% regression |

Further lines, with some results ahead:

| pIC50 ([1]; Homo sapiens, 96 h) | pEC50 (AMPK) | SMILES | pIC50 [2, 3] | further results |
| --- | --- | --- | --- | --- |
| – | 8.74 | COc1ccc(CN2CCC(n3cc4cc(C(=O)N5CCN(Cc6ccc(C(F)(F)F)cc6)CC5)ccc4n3)CC2)cn1 [Example 57] | – | – |
| 8.21 | 8.55 | CCOc1cnc(CN2CCC(c3ccc4c(c3)cc(C(=O)N3CCN(Cc5ccc(C#N)cc5)CC3)n4C)CC2)cn1 [Example 66] | 6.92 | Anti-tumor effect, regression rate (MDA-MB-453 cells; 1 mg/kg): 91% regression |
| 8.38 | 8.28 | COc1ccc(CN2CCC(c3cc4cc(C(=O)N5CCN(Cc6ccc(C(F)(F)F)cc6)CC5)n(C)c4cn3)CC2)cn1 [Example 44] | 7.06 | – |
| 9.26 | 9.07 | CCOc1cnc(CN2CCC(n3cc4cc(C(=O)N5CCN(Cc6ccc(C(F)(F)F)cc6)CC5)ccc4n3)CC2)cn1 [Example 58] | – | – |
| 8.09 | 7.89 | COc1ccc(CN2CCC(c3ccc4nc(C(=O)N5CCN(Cc6ccc(C(F)(F)F)cc6F)CC5)[nH]c4c3)CC2)cn1 [Example 38] | 7.23 | – |
| 8.40 | 7.85 | COc1cnc(CN2CCC(c3ccn4nc(C(=O)N5CCN(Cc6ccc(C(F)(F)F)cc6)CC5)cc4c3)CC2)cn1 [Example 50] | – | – |
| 8.49 | – | CCOc1cnc(CN2CCC(c3ccc4cc(C(=O)N5CCN(Cc6ccc(C#N)cc6)CC5)n(C)c4c3)CC2)cn1 [Example 69] | 7.66 | Anti-tumor effect, regression rate (MDA-MB-453 cells; 1 mg/kg): 87% regression |
| 8.05 | 8.00 | COc1ccc(CN2CCC(c3ccc4nc(C(=O)N5CCN(Cc6ccc7c(c6)OC(F)(F)O7)CC5)[nH]c4c3)CC2)cn1 [Example 37] | 7.54 | – |
| 8.55 | 8.19 | COc1ccc(CN2CCC(c3ccn4nc(C(=O)N5CCN(Cc6ccc(C(F)(F)F)cc6)CC5)cc4c3)CC2)cn1 [Example 49] | 7.74 | – |
